# Assay results from the NIST ThermoML archive (doi:10.1021/je900503p).
# Numbers after ± are expanded uncertainties.
# Key:
# [1] = xn = mol fraction of the nth substance listed; details: 101 kPa, Liquid
# [2] = refractive index (Na D-line) (dimensionless); xn = mol fraction of the nth substance listed; details: 101 kPa, Liquid
# [3] = relative permittivity at zero frequency (dimensionless); xn = mol fraction of the nth substance listed; details: 101 kPa, Liquid, Dekameter
structure (smiles),measurement,setting,value
O=C1CCCO1 [γ-butyrolactone] + CCC(C)O,mass density,"[1]; 293.15 K, x1 = 0.0564",820.99 ± 0.45 kg/m3
same,mass density,"[1]; 293.15 K, x1 = 0.1213",839.11 ± 0.43 kg/m3
same,mass density,"[1]; 293.15 K, x1 = 0.2541",877.55 ± 0.39 kg/m3
same,mass density,"[1]; 293.15 K, x1 = 0.3003",891.34 ± 0.38 kg/m3
same,mass density,"[1]; 293.15 K, x1 = 0.3895",918.62 ± 0.35 kg/m3
same,mass density,"[1]; 293.15 K, x1 = 0.4574",939.95 ± 0.34 kg/m3
same,mass density,"[1]; 293.15 K, x1 = 0.5005",953.71 ± 0.32 kg/m3
same,mass density,"[1]; 293.15 K, x1 = 0.5876",982.13 ± 0.3 kg/m3
same,mass density,"[1]; 293.15 K, x1 = 0.6442",1001.11 ± 0.29 kg/m3
same,mass density,"[1]; 293.15 K, x1 = 0.7127",1024.55 ± 0.34 kg/m3
same,mass density,"[1]; 293.15 K, x1 = 0.8006",1055.41 ± 0.41 kg/m3
same,mass density,"[1]; 293.15 K, x1 = 0.8554",1075.08 ± 0.46 kg/m3
same,mass density,"[1]; 293.15 K, x1 = 0.9262",1101.09 ± 0.53 kg/m3
same,mass density,"[1]; 293.15 K, x1 = 0.9785",1120.58 ± 0.58 kg/m3
same,mass density,"[1]; 298.15 K, x1 = 0.0564",817.52 ± 0.46 kg/m3
same,mass density,"[1]; 298.15 K, x1 = 0.1213",835.59 ± 0.44 kg/m3
same,mass density,"[1]; 298.15 K, x1 = 0.2541",873.9 ± 0.4 kg/m3
same,mass density,"[1]; 298.15 K, x1 = 0.3003",887.63 ± 0.39 kg/m3
same,mass density,"[1]; 298.15 K, x1 = 0.3895",914.8 ± 0.36 kg/m3
same,mass density,"[1]; 298.15 K, x1 = 0.4574",936.03 ± 0.34 kg/m3
same,mass density,"[1]; 298.15 K, x1 = 0.5005",949.73 ± 0.33 kg/m3
same,mass density,"[1]; 298.15 K, x1 = 0.5876",978.07 ± 0.31 kg/m3
same,mass density,"[1]; 298.15 K, x1 = 0.6442",996.91 ± 0.29 kg/m3
same,mass density,"[1]; 298.15 K, x1 = 0.7127",1020.25 ± 0.34 kg/m3
same,mass density,"[1]; 298.15 K, x1 = 0.8006",1050.96 ± 0.41 kg/m3
same,mass density,"[1]; 298.15 K, x1 = 0.8554",1070.55 ± 0.45 kg/m3
same,mass density,"[1]; 298.15 K, x1 = 0.9262",1096.44 ± 0.52 kg/m3
same,mass density,"[1]; 298.15 K, x1 = 0.9785",1115.89 ± 0.57 kg/m3
same,mass density,"[1]; 303.15 K, x1 = 0.0564",814 ± 0.46 kg/m3
same,mass density,"[1]; 303.15 K, x1 = 0.1213",831.99 ± 0.44 kg/m3
same,mass density,"[1]; 303.15 K, x1 = 0.2541",870.15 ± 0.4 kg/m3
same,mass density,"[1]; 303.15 K, x1 = 0.3003",883.83 ± 0.39 kg/m3
same,mass density,"[1]; 303.15 K, x1 = 0.3895",910.88 ± 0.36 kg/m3
same,mass density,"[1]; 303.15 K, x1 = 0.4574",932.02 ± 0.34 kg/m3
same,mass density,"[1]; 303.15 K, x1 = 0.5005",945.67 ± 0.33 kg/m3
same,mass density,"[1]; 303.15 K, x1 = 0.5876",973.9 ± 0.31 kg/m3
same,mass density,"[1]; 303.15 K, x1 = 0.6442",992.68 ± 0.3 kg/m3
same,mass density,"[1]; 303.15 K, x1 = 0.7127",1015.92 ± 0.33 kg/m3
same,mass density,"[1]; 303.15 K, x1 = 0.8006",1046.52 ± 0.4 kg/m3
same,mass density,"[1]; 303.15 K, x1 = 0.8554",1066.03 ± 0.44 kg/m3
same,mass density,"[1]; 303.15 K, x1 = 0.9262",1091.83 ± 0.51 kg/m3
same,mass density,"[1]; 303.15 K, x1 = 0.9785",1111.21 ± 0.56 kg/m3
same,mass density,"[1]; 313.15 K, x1 = 0.0564",805.57 ± 0.48 kg/m3
same,mass density,"[1]; 313.15 K, x1 = 0.1213",823.45 ± 0.46 kg/m3
same,mass density,"[1]; 313.15 K, x1 = 0.2541",861.53 ± 0.41 kg/m3
same,mass density,"[1]; 313.15 K, x1 = 0.3003",875.2 ± 0.4 kg/m3
same,mass density,"[1]; 313.15 K, x1 = 0.3895",902.14 ± 0.38 kg/m3
same,mass density,"[1]; 313.15 K, x1 = 0.4574",923.19 ± 0.36 kg/m3
same,mass density,"[1]; 313.15 K, x1 = 0.5005",936.83 ± 0.35 kg/m3
same,mass density,"[1]; 313.15 K, x1 = 0.5876",964.91 ± 0.32 kg/m3
same,mass density,"[1]; 313.15 K, x1 = 0.6442",983.59 ± 0.31 kg/m3
same,mass density,"[1]; 313.15 K, x1 = 0.7127",1006.75 ± 0.31 kg/m3
same,mass density,"[1]; 313.15 K, x1 = 0.8006",1037.12 ± 0.38 kg/m3
same,mass density,"[1]; 313.15 K, x1 = 0.8554",1056.44 ± 0.43 kg/m3
same,mass density,"[1]; 313.15 K, x1 = 0.9262",1081.97 ± 0.49 kg/m3
same,mass density,"[1]; 313.15 K, x1 = 0.9785",1101.4 ± 0.54 kg/m3
same,refractive index,"[2]; 293.15 K, x1 = 0.1009",1.4004 ± 0.0012
same,refractive index,"[2]; 293.15 K, x1 = 0.2112",1.4009 ± 0.0012
same,refractive index,"[2]; 293.15 K, x1 = 0.3009",1.4021 ± 0.0012
same,refractive index,"[2]; 293.15 K, x1 = 0.4008",1.4043 ± 0.0012
same,refractive index,"[2]; 293.15 K, x1 = 0.5088",1.4076 ± 0.0012
same,refractive index,"[2]; 293.15 K, x1 = 0.6003",1.4112 ± 0.0013
same,refractive index,"[2]; 293.15 K, x1 = 0.7001",1.4162 ± 0.0013
same,refractive index,"[2]; 293.15 K, x1 = 0.8055",1.4221 ± 0.0013
same,refractive index,"[2]; 293.15 K, x1 = 0.9011",1.4285 ± 0.0013
same,refractive index,"[2]; 298.15 K, x1 = 0.1009",1.3976 ± 0.0012
same,refractive index,"[2]; 298.15 K, x1 = 0.2112",1.3978 ± 0.0012
same,refractive index,"[2]; 298.15 K, x1 = 0.3009",1.3986 ± 0.0012
same,refractive index,"[2]; 298.15 K, x1 = 0.4008",1.4005 ± 0.0012
same,refractive index,"[2]; 298.15 K, x1 = 0.5088",1.4036 ± 0.0012
same,refractive index,"[2]; 298.15 K, x1 = 0.6003",1.4071 ± 0.0013
same,refractive index,"[2]; 298.15 K, x1 = 0.7001",1.4119 ± 0.0013
same,refractive index,"[2]; 298.15 K, x1 = 0.8055",1.4175 ± 0.0013
same,refractive index,"[2]; 298.15 K, x1 = 0.9011",1.4236 ± 0.0013
same,refractive index,"[2]; 303.15 K, x1 = 0.1009",1.394 ± 0.0012
same,refractive index,"[2]; 303.15 K, x1 = 0.2112",1.3943 ± 0.0012
same,refractive index,"[2]; 303.15 K, x1 = 0.3009",1.3952 ± 0.0012
same,refractive index,"[2]; 303.15 K, x1 = 0.4008",1.3974 ± 0.0012
same,refractive index,"[2]; 303.15 K, x1 = 0.5088",1.4004 ± 0.0012
same,refractive index,"[2]; 303.15 K, x1 = 0.6003",1.4036 ± 0.0013
same,refractive index,"[2]; 303.15 K, x1 = 0.7001",1.4082 ± 0.0013
same,refractive index,"[2]; 303.15 K, x1 = 0.8055",1.4135 ± 0.0013
same,refractive index,"[2]; 303.15 K, x1 = 0.9011",1.4195 ± 0.0013
same,refractive index,"[2]; 313.15 K, x1 = 0.1009",1.3909 ± 0.0012
same,refractive index,"[2]; 313.15 K, x1 = 0.2112",1.3906 ± 0.0012
same,refractive index,"[2]; 313.15 K, x1 = 0.3009",1.3912 ± 0.0012
same,refractive index,"[2]; 313.15 K, x1 = 0.4008",1.3925 ± 0.0012
same,refractive index,"[2]; 313.15 K, x1 = 0.5088",1.3952 ± 0.0012
same,refractive index,"[2]; 313.15 K, x1 = 0.6003",1.3984 ± 0.0013
same,refractive index,"[2]; 313.15 K, x1 = 0.7001",1.4023 ± 0.0013
same,refractive index,"[2]; 313.15 K, x1 = 0.8055",1.4078 ± 0.0013
same,refractive index,"[2]; 313.15 K, x1 = 0.9011",1.4133 ± 0.0013
same,relative permittivity at zero frequency,"[3]; 293.15 K, x1 = 0.1009",17.91 ± 0.06
same,relative permittivity at zero frequency,"[3]; 293.15 K, x1 = 0.2112",19.08 ± 0.06
same,relative permittivity at zero frequency,"[3]; 293.15 K, x1 = 0.3009",20.56 ± 0.06
same,relative permittivity at zero frequency,"[3]; 293.15 K, x1 = 0.4008",22.53 ± 0.06
same,relative permittivity at zero frequency,"[3]; 293.15 K, x1 = 0.5088",25.16 ± 0.06
same,relative permittivity at zero frequency,"[3]; 293.15 K, x1 = 0.6003",27.69 ± 0.06
same,relative permittivity at zero frequency,"[3]; 293.15 K, x1 = 0.7001",30.91 ± 0.06
same,relative permittivity at zero frequency,"[3]; 293.15 K, x1 = 0.8055",34.66 ± 0.06
same,relative permittivity at zero frequency,"[3]; 293.15 K, x1 = 0.9011",38.29 ± 0.06
same,relative permittivity at zero frequency,"[3]; 298.15 K, x1 = 0.1009",16.66 ± 0.06
same,relative permittivity at zero frequency,"[3]; 298.15 K, x1 = 0.2112",17.89 ± 0.06
same,relative permittivity at zero frequency,"[3]; 298.15 K, x1 = 0.3009",19.48 ± 0.06
same,relative permittivity at zero frequency,"[3]; 298.15 K, x1 = 0.4008",21.48 ± 0.06
same,relative permittivity at zero frequency,"[3]; 298.15 K, x1 = 0.5088",24.01 ± 0.06
same,relative permittivity at zero frequency,"[3]; 298.15 K, x1 = 0.6003",26.59 ± 0.06
same,relative permittivity at zero frequency,"[3]; 298.15 K, x1 = 0.7001",29.67 ± 0.06
same,relative permittivity at zero frequency,"[3]; 298.15 K, x1 = 0.8055",33.02 ± 0.06
same,relative permittivity at zero frequency,"[3]; 298.15 K, x1 = 0.9011",37.47 ± 0.06
same,relative permittivity at zero frequency,"[3]; 303.15 K, x1 = 0.1009",16.75 ± 0.06
same,relative permittivity at zero frequency,"[3]; 303.15 K, x1 = 0.2112",18.21 ± 0.06
same,relative permittivity at zero frequency,"[3]; 303.15 K, x1 = 0.3009",19.37 ± 0.06
same,relative permittivity at zero frequency,"[3]; 303.15 K, x1 = 0.4008",21.28 ± 0.06
same,relative permittivity at zero frequency,"[3]; 303.15 K, x1 = 0.5088",23.71 ± 0.06
same,relative permittivity at zero frequency,"[3]; 303.15 K, x1 = 0.6003",26.26 ± 0.06
same,relative permittivity at zero frequency,"[3]; 303.15 K, x1 = 0.7001",29.48 ± 0.06
same,relative permittivity at zero frequency,"[3]; 303.15 K, x1 = 0.8055",33.39 ± 0.06
same,relative permittivity at zero frequency,"[3]; 303.15 K, x1 = 0.9011",36.73 ± 0.06
same,relative permittivity at zero frequency,"[3]; 313.15 K, x1 = 0.1009",16.09 ± 0.06
same,relative permittivity at zero frequency,"[3]; 313.15 K, x1 = 0.2112",17.48 ± 0.06
same,relative permittivity at zero frequency,"[3]; 313.15 K, x1 = 0.3009",18.55 ± 0.06
same,relative permittivity at zero frequency,"[3]; 313.15 K, x1 = 0.4008",20.43 ± 0.06
same,relative permittivity at zero frequency,"[3]; 313.15 K, x1 = 0.5088",22.86 ± 0.06
same,relative permittivity at zero frequency,"[3]; 313.15 K, x1 = 0.6003",25.55 ± 0.06
same,relative permittivity at zero frequency,"[3]; 313.15 K, x1 = 0.7001",28.79 ± 0.06
same,relative permittivity at zero frequency,"[3]; 313.15 K, x1 = 0.8055",32.73 ± 0.06
same,relative permittivity at zero frequency,"[3]; 313.15 K, x1 = 0.9011",36.05 ± 0.06
